Data: publication PMC3871595, “Structure Based Identification and Characterization of Flavonoids That Disrupt Human Papillomavirus-16 E6 Function” (PLoS ONE, 2013)
Entries after “also recorded” stand apart in the source; their conditions may differ.

Experiments:
RPE-1 cells = assay: p53/p21 immunoblot analysis in RPE-1 cells; format: cell-based, human; settings: RPE-1 (HPV negative), 40 hours
Description: Caski cells, which are derived from an HPV-16 infected cervical carcinoma and express HPV-16 E6 and E7, were used to determine whether these compounds interfere with HPV-16 E6 function. Inhibition of E6 should block its ability to promote the degradation of p53 thereby increasing the levels of p53. […] These compounds were also assayed in telomerase immortalized human retinal epithelial cells (RPE-1). […] If the elevation in p53 is dependent on the inhibition of E6 by these compounds, p53 should not increase in the RPE-1 cells.
(§1) 20,000 cells per cm^2 were plated in 6-well dishes. Cells were incubated for 24 hours at which time fresh media and compound were added. After 40 hours, cells were harvested, washed with cold PBS, and lysed in RIPA buffer with protease inhibitor. Each sample was separated on a 12% SDS-page gel, transferred to Immobilon-P membrane (Millipore) and blotted for the p53 (DO-1, Santa Cruz), p21 (c-19, Santa Cruz), and actin (A2066, Sigma). Protein quantification was performed with the Fujifilm LAS-4000 Multifunctional Imaging System. The signal intensity was measured for each band on an immunoblot, normalized to the loading control, and the fold increase was determined in relation to the appropriate DMSO treated control. RNA was isolated from these cells using Trizol Reagent (Invitrogen 15596-026). cDNA was generated using the Improm-II Reverse Transcription System (Promega A3801). qPCR was performed as described in the protocol for SsoFast EvaGreen supermix (BioRad 172-5023) using an BioRad CFX96 real-time PCR machine. Melting curves for each reaction were obtained. Each sample was assayed in triplicate and every plate contained a 5-point cDNA dilution course to calculate amplification efficiency for each primer pair. The Pfaffl method was used to determine the change in transcript levels relative to the DMSO and normalized to GAPDH.

MBP-E6 = target: T1, MBP-E6 (Human papillomavirus type 16, UniProt P03126); assay: thermal shift (Sypro Orange) assay; format: binding, HPV-16; settings: versus DMSO; for effect on Tm of MBP-E6: 5-150 µM tested
T1 construct: made in house; host or cells: E. coli BL21DE(3)
Description: A thermal shift assay was used to assess compound binding to HPV E6. In this reaction, protein denaturation is measured by an increase in fluorescence from Sypro Orange as it binds to the newly exposed hydrophobic surfaces on the protein [48]. A protein stability curve is created as a measure of the rate of protein unfolding. The relative fluorescence is plotted against temperature and the melting temperature (Tm) is determined by calculating the temperature of peak fluorescence. Ligand binding can stabilize the protein and increase the Tm. The thermal profile of MBP-E6 proteins was investigated to determine if the flavonoid derivatives could stabilize MBP-E6 protein structure during heat-induced unfolding. […] The change in Tm (∆Tm) was plotted for each compound and compared to DMSO (Figure 10F,G ).
MBP-16E6 DNA, a kind gift from G. Travé [58], was transformed into BL21DE(3) E. coli. Protein expression was performed by inoculation of a 1 mL starter culture in 100 mL of Turbo-Broth containing 0.2 % lactose, 0.05% glucose and 0.6% glycerol at 20°C for 24 hrs. Cells were lysed in 50 mM Tris HCl pH 6.8, 300 mM NaCl, 0.1 % (v/v) NP-40, 2 mM DTT and 1x protease inhibitor cocktail (EDTA-free, Roche) and sonicated as described before. Cell lysate was cleared by centrifugation at 15000xg, 4°C for 30 min and equilibrated with amylose resin beads (New England Biolabs, Inc.) by inversion for 3 hrs at 4°C. Bound beads were washed one time in lysis buffer and four times with wash buffer (50 mM Tris-HCl pH 6.8, 400 mM NaCl, 2 mM DTT, 1x protease inhibitor cocktail). Bound MBP-E6 proteins were eluted using a final concentration of 20 mM maltose in 5 bed volumes of wash buffer. All steps were performed at 4°C. Protein concentration was measured by BCA (BioRad). Thermostability of MBP-E6 proteins was analyzed at a final concentration of 1 µM in reaction buffer (50 mM TrisHCl pH 6.8, 400 mM NaCl, 2 mM DTT). MBP-E6 proteins were equilibrated with CAF-8 (5 µM-150 µM), CAF-24 (5 µM-150 µM), CAF-26 (5 µM-150 µM) or DMSO for 30 min in reaction buffer. Sypro Orange, a hydrophobic fluorescent dye, was added at the end of the incubation period at a final concentration of 5X. The final DMSO concentration (1.8% v/v) was kept constant across the concentration range. Fluorescence was measured using the FRET channel of CFX96 Real-Time PCR thermal cycler (BioRad) over a temperature range of 25°C to 95°C. Temperature increments were set to 0.5°C for 30 sec followed by plate reading. Melt curves were determined in triplicate and repeated four times. Melt curves represent the relative fluorescence of the 1st derivative of four experiments. Melting temperature (Tm) was calculated by CFX manager software. The average melting temperature of the triplicate was used to calculate the ∆Tm for each experiment. ∆Tm values are expressed as the change vs. DMSO.

[1] = tested on: Caski, HeLa, RPE-1, C33a and HaCat cells; assay: cell number and morphology (bright field microscopy); format: cell-based, human; settings: 72 hours
[2] = solubility in aqueous SPR buffers; format: physicochemical; settings: for aqueous solubility (in words): simple aqueous solution
[3] = tested on: E6/E7 immortalized human foreskin keratinocytes; assay: p53/p21 immunoblot analysis in E6/E7 immortalized HFKs; format: cell-based; settings: 40 hours
Description: Each compound was used to treat primary HFKs or HFKs immortalized through the over-expression of HPV16 E6 and E7 proteins.
as §1

T1 sequence (P03126 whole entry): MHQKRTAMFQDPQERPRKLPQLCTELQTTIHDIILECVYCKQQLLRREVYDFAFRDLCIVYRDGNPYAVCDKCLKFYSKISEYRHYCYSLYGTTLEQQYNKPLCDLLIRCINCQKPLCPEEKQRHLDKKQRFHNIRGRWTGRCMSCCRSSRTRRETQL

| SMILES | p53 protein levels (RPE-1 cells) | effect on Tm of MBP-E6 (MBP-E6) | number of cells per well [1] | solubility ([2]; aqueous SPR buffers, read-out: concentration soluble in the appropriate buffers) | aqueous solubility (in words) [2] | p21 protein levels [3] | p53 protein levels [3] | p21 protein levels (RPE-1 cells) | shift of MBP-E6 Tm (MBP-E6; at 25, 50 and 150 µM) | cell morphology ([1]; luteolin @ 50µM) |
| --- | --- | --- | --- | --- | --- | --- | --- | --- | --- | --- |
| O=c1cc(-c2ccc(O)c(O)c2)oc2cc(O)cc(O)c12 [luteolin, reference compound] | increase in p53 protein levels, but only at concentrations higher than was required to increase p53 and p21 levels in the Caski cells | no effect on the Tm of MBP-E6; also recorded: did not shift the Tm of MBP-E6 | dramatic decrease in the number of cells per well | < 20 µM | poor solubility | increased p53 and p21 protein levels | increased p53 and p21 protein levels |  |  |  |
| COc1cccc(-c2cc(=O)c3cc(-c4nnn[nH]4)ccc3o2)c1 [CAF-24] | did not induce increased levels of p53 or p21 proteins | about 1 °C | decreased Caski and HeLa cell numbers |  | poor solubility; also recorded: limited aqueous solubility | increased p53 and p21 protein levels | increased p53 and p21 protein levels | did not induce increased levels of p53 or p21 proteins | ~1 °C | no change in cell morphology |
